Structures can show the parent of a compound that is named as a salt.
Tests used:
[1] = Hygroscopicity test (K.F. water content under various humidity); format: physicochemical; details: 25° C.; for hygroscopicity (in words): various humidity conditions
[2] = Thermal stability in solid state, acceleration test at 60° C. (HPLC content); format: physicochemical
Method: (§1) <HPLC Analysis Condition> • Detector: UV absorbance (at 237 nm), • Column: Octadecyl silica gel C18 (4.6 mm×150 mm, 5[…]), • mobile phase: Potassium dihydrogen phosphate monobasic (0.03 M): Methanol=4:6 (by volume) • Flow rate: 1.5 ml/min.

[3] = Thermal stability in liquid state (distilled water, 25° C., dark, 4 weeks); format: physicochemical; details: dissolved in distilled water, 4 weeks at 25° C. in the dark
Method: as §1
The observation was made under the same conditions as in the HPLC analysis for evaluating the thermal stability of samples in a solid state.

[4] = Photostability test (ICH photostable chamber, 25° C., 4 weeks, HPLC content); format: physicochemical; details: 4 weeks at 25° C., light source
Method: as §1
An observation was made of content (HPLC) change under the same conditions as in the HPLC analysis for evaluating the thermal stability of samples.

physchem = details: 25 °C

Structure (SMILES) | water content (K.F. moisture %) ([1]; 25% RH, Post 1 Week) | water content (K.F. moisture %) ([1]; 60% RH, Post 1 Week) | water content (K.F. moisture %) ([1]; 75% RH, Post 1 Week) | water content (K.F. moisture %) ([1]; 95% RH, Post 1 Week) | water content (K.F. moisture %) ([1]; Initial) | hygroscopicity (in words) [1] | content change in 60° C. acceleration test (in words) [2] | content change in liquid state (in words) [3] | appearance on light exposure [4] | solubility (physchem; pH 1.2, simulated gastric fluid) | solubility (physchem; pH 4, aqueous buffer) | solubility (physchem; pH 6.8, aqueous buffer) | solubility (physchem; water) | water content (K.F. moisture %) ([1]; 95% RH, Post 1 Week, listed as Example 2)
CCOC(=O)C1=C(COCCN)NC(C)=C(C(=O)OC)[C@@H]1c1ccccc1Cl.CCOC(=O)C1=C(COCCN)NC(C)=C(C(=O)OC)[C@@H]1c1ccccc1Cl.O.O.O.O.O.O=S(=O)(O)c1ccccc1.O=S(=O)(O)c1ccccc1 [C. Ex. 1, S-(−)-amlodipine besylate 2.5 hydrate, reference compound] | 7.55% | 7.6% | 7.85% | 7.9% | 7.8% | high in water content from the beginning | little change in content | no significant content changes | turned yellow from white | – | – | – | – | –
CCOC(=O)C1=C(COCCN)NC(C)=C(C(=O)OC)[C@@H]1c1ccccc1Cl [Ex. 1, crystalline S-(−)-amlodipine adipic acid salt anhydrous] | 0.15% | 0.15% | 0.14% | 0.16% | 0.15% | no hygroscopicity | little change in content | no significant content changes | – | 81.7 mg/mL | 57.1 mg/mL | 41.3 mg/mL | 18.6 mg/mL | –
CCOC(=O)C1=C(COCCN)NC(C)=C(C(=O)OC)[C@@H]1c1ccccc1Cl [Ex. 2, hygroscopic crystalline S-(−)-amlodipine adipic acid salt anhydrous] | 0.8% | 0.9% | 1.3% | 1.62% | 0.7% | – | – | – | – | – | – | – | – | 1.62%
CCOC(=O)C1=C(COCCN)NC(C)=C(C(=O)OC)C1c1ccccc1Cl.O=C(O)CCCCC(=O)O (racemic) [C. Ex. 2, crystalline racemic amlodipine adipic acid salt anhydrous, reference compound] | 0.10% | 0.09% | 0.15% | 0.17% | 0.10% | no hygroscopicity | little change in content | no significant content changes | – | – | – | – | – | –
